According to patent EP4745135A1 (Gluetacs Therapeutics (Shanghai) Co., Ltd., priority 2023, dated 2025):
pIC50: −log10 of the molar value. Blank lines part the entries; values can stand above or below the molecule they belong to.

Key:
[1] = molecular target: T1, CK1α (Homo sapiens, UniProt P48729+Q96SW2); assay: Western blot, degradation of substrate protein in hPBMCs; assay type: cell-based
T1 construct: effects of the compounds of the present disclosure on the expression of target proteins in cells; endogenous in cells; host or cells: human PBMCs (Milecell Biotechnologies)
T1 sequence (P48729 whole entry): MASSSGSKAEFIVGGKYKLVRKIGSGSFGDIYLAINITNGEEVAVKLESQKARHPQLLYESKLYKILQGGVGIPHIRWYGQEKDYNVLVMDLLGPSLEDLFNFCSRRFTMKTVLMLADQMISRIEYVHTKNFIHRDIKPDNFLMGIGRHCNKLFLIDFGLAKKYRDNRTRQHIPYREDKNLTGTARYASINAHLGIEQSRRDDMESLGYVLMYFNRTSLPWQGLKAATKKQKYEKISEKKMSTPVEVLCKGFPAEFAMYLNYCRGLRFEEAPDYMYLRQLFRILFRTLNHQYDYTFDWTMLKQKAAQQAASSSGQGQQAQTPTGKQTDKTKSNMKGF
T1 sequence (Q96SW2 whole entry): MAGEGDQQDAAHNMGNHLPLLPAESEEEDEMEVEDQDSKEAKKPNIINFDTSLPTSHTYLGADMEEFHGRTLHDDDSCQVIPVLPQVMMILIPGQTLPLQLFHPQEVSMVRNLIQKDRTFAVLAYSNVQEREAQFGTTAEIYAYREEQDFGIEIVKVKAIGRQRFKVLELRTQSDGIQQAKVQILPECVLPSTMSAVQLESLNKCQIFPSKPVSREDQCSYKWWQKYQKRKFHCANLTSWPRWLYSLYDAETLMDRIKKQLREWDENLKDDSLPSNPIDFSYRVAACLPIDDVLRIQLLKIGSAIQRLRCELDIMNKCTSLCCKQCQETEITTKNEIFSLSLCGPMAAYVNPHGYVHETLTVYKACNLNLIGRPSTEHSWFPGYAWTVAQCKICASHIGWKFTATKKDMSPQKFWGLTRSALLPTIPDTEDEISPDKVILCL
T1 sequence (Q16531 whole entry partner): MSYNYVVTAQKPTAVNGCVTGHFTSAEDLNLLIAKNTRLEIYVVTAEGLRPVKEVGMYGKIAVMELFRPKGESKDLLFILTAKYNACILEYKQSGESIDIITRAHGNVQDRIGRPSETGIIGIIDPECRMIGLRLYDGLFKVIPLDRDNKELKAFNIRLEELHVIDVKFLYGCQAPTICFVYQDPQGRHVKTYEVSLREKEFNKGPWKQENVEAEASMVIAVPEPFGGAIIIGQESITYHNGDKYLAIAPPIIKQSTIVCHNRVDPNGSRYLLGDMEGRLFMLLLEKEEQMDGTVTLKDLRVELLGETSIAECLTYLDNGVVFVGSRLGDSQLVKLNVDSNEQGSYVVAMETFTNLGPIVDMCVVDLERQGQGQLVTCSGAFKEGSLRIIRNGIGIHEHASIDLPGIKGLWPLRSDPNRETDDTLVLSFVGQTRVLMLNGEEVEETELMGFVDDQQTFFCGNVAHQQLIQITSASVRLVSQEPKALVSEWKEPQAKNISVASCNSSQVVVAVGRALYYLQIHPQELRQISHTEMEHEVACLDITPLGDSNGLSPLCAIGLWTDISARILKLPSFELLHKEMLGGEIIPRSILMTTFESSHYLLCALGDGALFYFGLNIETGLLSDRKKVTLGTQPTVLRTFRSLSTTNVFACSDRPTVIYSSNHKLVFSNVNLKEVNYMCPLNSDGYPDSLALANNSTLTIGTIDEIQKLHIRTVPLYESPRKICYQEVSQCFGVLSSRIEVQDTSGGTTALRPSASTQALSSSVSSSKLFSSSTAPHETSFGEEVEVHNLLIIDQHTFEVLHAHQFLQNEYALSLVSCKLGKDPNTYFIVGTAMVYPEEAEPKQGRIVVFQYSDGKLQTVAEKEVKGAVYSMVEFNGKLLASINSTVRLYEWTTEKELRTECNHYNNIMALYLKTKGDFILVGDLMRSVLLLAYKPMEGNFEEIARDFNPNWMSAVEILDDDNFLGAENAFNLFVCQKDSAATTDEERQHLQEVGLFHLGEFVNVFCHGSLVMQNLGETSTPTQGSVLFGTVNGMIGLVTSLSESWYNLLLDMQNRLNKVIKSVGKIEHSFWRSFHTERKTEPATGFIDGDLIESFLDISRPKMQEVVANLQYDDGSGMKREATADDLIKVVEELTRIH

[2] = molecular target: T2, IKZF1 (Homo sapiens, UniProt Q13422+Q96SW2); assay: as above; assay type: cell-based
T2 construct: effects of the compounds of the present disclosure on the expression of target proteins in cells; endogenous in cells; host or cells: human PBMCs (Milecell Biotechnologies)
T2 sequence (Q13422 whole entry): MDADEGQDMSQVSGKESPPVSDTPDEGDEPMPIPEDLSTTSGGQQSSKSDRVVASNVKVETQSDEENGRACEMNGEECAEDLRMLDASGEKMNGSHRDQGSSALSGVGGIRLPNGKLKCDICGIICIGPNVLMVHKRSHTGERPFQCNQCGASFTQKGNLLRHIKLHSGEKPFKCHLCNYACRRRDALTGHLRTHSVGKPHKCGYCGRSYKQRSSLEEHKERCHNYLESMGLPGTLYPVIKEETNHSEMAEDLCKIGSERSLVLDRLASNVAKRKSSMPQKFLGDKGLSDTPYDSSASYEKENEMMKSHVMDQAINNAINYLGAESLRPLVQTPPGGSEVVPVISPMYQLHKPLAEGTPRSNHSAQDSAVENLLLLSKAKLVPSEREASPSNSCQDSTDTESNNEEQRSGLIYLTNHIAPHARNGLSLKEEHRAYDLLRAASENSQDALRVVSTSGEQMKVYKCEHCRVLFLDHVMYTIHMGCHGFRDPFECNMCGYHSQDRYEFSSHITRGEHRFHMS
T2 sequence (Q96SW2 whole entry): as the sequence (Q96SW2 whole entry) above
T2 sequence (Q16531 whole entry partner): as the sequence (Q16531 whole entry partner) above

[3] = molecular target: T3, IKZF2 (Homo sapiens, UniProt Q96SW2+Q9UKS7); assay: as above; assay type: cell-based
T3 construct: effects of the compounds of the present disclosure on the expression of target proteins in cells; endogenous in cells; host or cells: human PBMCs (Milecell Biotechnologies)
T3 sequence (Q9UKS7 whole entry): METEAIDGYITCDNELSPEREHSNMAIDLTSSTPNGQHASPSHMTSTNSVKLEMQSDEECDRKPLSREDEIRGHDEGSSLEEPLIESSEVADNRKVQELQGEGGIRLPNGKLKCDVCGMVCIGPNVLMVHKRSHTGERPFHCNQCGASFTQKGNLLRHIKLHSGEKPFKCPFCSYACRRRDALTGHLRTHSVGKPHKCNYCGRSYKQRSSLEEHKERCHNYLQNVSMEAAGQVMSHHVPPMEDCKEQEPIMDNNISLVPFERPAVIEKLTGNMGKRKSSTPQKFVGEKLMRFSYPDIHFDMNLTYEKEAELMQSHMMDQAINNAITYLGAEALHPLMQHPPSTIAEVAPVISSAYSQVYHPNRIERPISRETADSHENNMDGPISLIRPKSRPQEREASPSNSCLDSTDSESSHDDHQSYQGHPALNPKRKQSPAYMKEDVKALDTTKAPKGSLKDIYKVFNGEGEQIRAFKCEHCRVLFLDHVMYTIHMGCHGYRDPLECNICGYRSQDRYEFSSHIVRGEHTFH
T3 sequence (Q96SW2 whole entry): as the sequence (Q96SW2 whole entry) above
T3 sequence (Q16531 whole entry partner): as the sequence (Q16531 whole entry partner) above

[4] = molecular target: T4, IKZF3 (Homo sapiens, UniProt Q96SW2+Q9UKT9); assay: as above; assay type: cell-based
T4 construct: effects of the compounds of the present disclosure on the expression of target proteins in cells; endogenous in cells; host or cells: human PBMCs (Milecell Biotechnologies)
T4 sequence (Q9UKT9 whole entry): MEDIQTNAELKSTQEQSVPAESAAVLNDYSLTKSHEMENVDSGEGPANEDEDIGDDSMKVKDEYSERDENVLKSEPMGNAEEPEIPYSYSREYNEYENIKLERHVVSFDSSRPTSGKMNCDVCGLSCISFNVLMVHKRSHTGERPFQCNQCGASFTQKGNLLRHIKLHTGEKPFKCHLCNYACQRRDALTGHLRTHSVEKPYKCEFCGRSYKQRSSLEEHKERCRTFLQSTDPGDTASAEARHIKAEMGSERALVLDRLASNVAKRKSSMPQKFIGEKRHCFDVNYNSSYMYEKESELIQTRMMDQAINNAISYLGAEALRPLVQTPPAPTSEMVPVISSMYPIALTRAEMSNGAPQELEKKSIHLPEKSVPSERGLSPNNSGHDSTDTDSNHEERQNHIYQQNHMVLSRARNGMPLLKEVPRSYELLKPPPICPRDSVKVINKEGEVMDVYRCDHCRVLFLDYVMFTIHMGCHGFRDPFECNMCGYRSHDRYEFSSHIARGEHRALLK
T4 sequence (Q96SW2 whole entry): as the sequence (Q96SW2 whole entry) above
T4 sequence (Q16531 whole entry partner): as the sequence (Q16531 whole entry partner) above

[5] = molecular target: T5, WEE1 (Homo sapiens, UniProt P30291+Q96SW2); assay: as above; assay type: cell-based
T5 construct: effects of the compounds of the present disclosure on the expression of target proteins in cells; endogenous in cells; host or cells: human PBMCs (Milecell Biotechnologies)
T5 sequence (P30291 whole entry): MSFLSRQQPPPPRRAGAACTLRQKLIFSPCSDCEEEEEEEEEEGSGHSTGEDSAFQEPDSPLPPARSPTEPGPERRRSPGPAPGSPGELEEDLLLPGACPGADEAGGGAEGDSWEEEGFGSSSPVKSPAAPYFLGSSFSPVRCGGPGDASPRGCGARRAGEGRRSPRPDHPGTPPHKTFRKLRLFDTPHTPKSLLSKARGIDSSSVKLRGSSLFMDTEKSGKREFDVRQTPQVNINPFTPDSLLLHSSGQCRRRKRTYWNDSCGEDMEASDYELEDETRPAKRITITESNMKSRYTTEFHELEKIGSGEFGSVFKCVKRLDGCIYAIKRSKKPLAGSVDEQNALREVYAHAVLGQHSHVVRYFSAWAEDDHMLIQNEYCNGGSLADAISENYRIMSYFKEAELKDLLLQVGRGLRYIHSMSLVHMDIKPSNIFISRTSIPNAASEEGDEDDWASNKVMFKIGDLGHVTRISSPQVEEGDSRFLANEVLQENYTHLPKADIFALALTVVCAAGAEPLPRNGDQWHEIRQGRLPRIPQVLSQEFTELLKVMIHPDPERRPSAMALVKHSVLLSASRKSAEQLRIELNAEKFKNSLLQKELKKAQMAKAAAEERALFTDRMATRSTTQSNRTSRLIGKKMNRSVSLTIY
T5 sequence (Q96SW2 whole entry): as the sequence (Q96SW2 whole entry) above
T5 sequence (Q16531 whole entry partner): as the sequence (Q16531 whole entry partner) above

[6] = tested on: GSPT1; assay: as above; assay type: cell-based, Human
[7] = molecular target: T6, human Cereblon WT GST-tagged protein (Homo sapiens, UniProt Q96SW2); assay: CRBN-binding affinity, HTRF (CEREBLON BINDING kit); conditions: for pIC50: CRBN binding, HTRF, 3 hours at room temperature, read-out: HTRF IC50; for inhibition at 0.5 µM: read-out: Inhibition Rate at 0.5 µM (%); for inhibition at 2 µM: read-out: Inhibition Rate at 2 µM (%)
T6 construct: purchased CISBIO 64BDCRBNPEH
T6 sequence (Q96SW2 whole entry): as the sequence (Q96SW2 whole entry) above

[8] = tested on: Human multiple myeloma cell (MM.1S); assay: Tumor cell proliferation inhibition (CellTiter-Meiluncell luminescent cell viability assay); conditions: for IC50 / inhibition at 0.01 µM / inhibition at 0.5 µM: Homo sapiens, MM1.S, 96 h; for IC50: read-out: Inhibitory activity (IC50, nM) on tumor cell proliferation, MM.1S; for inhibition at 0.01 µM: read-out: Inhibition Rate at 10 nM (%); for inhibition at 0.5 µM: read-out: Inhibition Rate at 500 nM (%); for Inhibition Rate at 500 nM (%): MM.1S, 96 hours
[9] = Western blot, 24 hours of compound treatment, compounds tested at 50 nM and 500 nM (concentration for the table not stated)
[10] = 24 hours treatment, compounds at 50 nM and 500 nM (concentration behind the class not stated)

pIC50 [7]: 6.30 to 7.00
IC50 [8]: 50 to 100 nM
SMILES: Cc1ccc(C2CCN(Cc3ccc4c(c3)CN(C3CCC(=O)NC3=O)C4=S)CC2)s1 (stereo not shown) [GT-05112, 3-(5-((4-(5-methylthiophen-2-yl)piperidin-1-yl)methyl)-1-thioxoisoindolin-2-yl)piperidine-2,6-dione]
CK1α substrate protein remaining % [1, 9]: B (80%< substrate protein remaining %≤ 100%)
IKZF 1 substrate protein remaining % [2, 9]: A (0% ≤ substrate protein remaining % ≤ 80%)
IKZF2 substrate protein remaining % [3, 9]: B (80%< substrate protein remaining %≤ 100%)
IKZF3 substrate protein remaining % [4, 9]: A (0% ≤ substrate protein remaining % ≤ 80%)
Wee1 substrate protein remaining % [5, 9]: B (80%< substrate protein remaining %≤ 100%)
GSPT1 substrate protein remaining % [6, 9]: A (0% ≤ substrate protein remaining % ≤ 80%)

inhibition at 0.5 µM [7]: 60 to 80%
inhibition at 2 µM [7]: 80 to 100%
SMILES: Cc1cc2c(C3=CCN(Cc4cccc5c4CN(C4CCC(=O)NC4=O)C5=S)CC3)ncnc2s1 (stereo not shown) [GT-08947, 3-(4-((4-(6-methylthieno[2,3-d]pyrimidin-4-yl)-3,6-dihydropyridin-1(2H)-yl)methyl)-1-thioxoisoindolin-2-yl)piperidine-2,6-dione]
CK1α substrate protein remaining % [1, 10]: B (80%< substrate protein remaining %≤ 100%)
IKZF 1 substrate protein remaining % [2, 10]: B (80%< substrate protein remaining %≤ 100%)
IKZF2 substrate protein remaining % [3, 10]: B (80%< substrate protein remaining %≤ 100%)
IKZF3 substrate protein remaining % [4, 10]: B (80%< substrate protein remaining %≤ 100%)
Wee1 substrate protein remaining % [5, 10]: A (0% ≤ substrate protein remaining % ≤ 80%)
GSPT1 substrate protein remaining % [6, 10]: B (80%< substrate protein remaining %≤ 100%)
inhibition at 0.01 µM [8]: 30 to 40%
inhibition at 0.5 µM [8]: 40 to 50%

SMILES: O=C1CCC(N2Cc3c(CN4CC5CC(C4)N5c4cccc(Cl)c4Cl)cccc3C2=S)C(=O)N1 (stereo not shown) [GT-08466, 3-(4-((6-(2,3-dichlorophenyl)-3,6-diazabicyclo[3.1.1]heptan-3-yl)methyl)-1-thioxoisoindolin-2-yl)piperidine-2,6-dione]
CK1α substrate protein remaining % [1, 9]: B (80%< substrate protein remaining %≤ 100%)
IKZF 1 substrate protein remaining % [2, 9]: B (80%< substrate protein remaining %≤ 100%)
IKZF2 substrate protein remaining % [3, 9]: A (0% ≤ substrate protein remaining % ≤ 80%)
IKZF3 substrate protein remaining % [4, 9]: B (80%< substrate protein remaining %≤ 100%)
Wee1 substrate protein remaining % [5, 9]: B (80%< substrate protein remaining %≤ 100%)
GSPT1 substrate protein remaining % [6, 9]: A (0% ≤ substrate protein remaining % ≤ 80%)
inhibition at 0.5 µM [7]: 30 to 40%
inhibition at 2 µM [7]: 60 to 80%
inhibition at 0.01 µM [8]: 20 to 30%
Inhibition Rate at 500 nM (%) [8]: la7

pIC50 [7]: > 7.00
IC50 [8]: 10 to 50 nM
SMILES: O=C1CCC(N2Cc3cc(CN4CC=C(c5ccnc6cc(F)ccc56)CC4)ccc3C2=S)C(=O)N1 (stereo not shown) [GT-05245, 3-(5-((4-(7-fluoroquinolin-4-yl)-3,6-dihydropyridin-1(2H)-yl)methyl)-1-thioxoisoindolin-2-yl)piperidine-2,6-dione]
CK1α substrate protein remaining % [1, 9]: B (80%< substrate protein remaining %≤ 100%)
IKZF 1 substrate protein remaining % [2, 9]: B (80%< substrate protein remaining %≤ 100%)
IKZF2 substrate protein remaining % [3, 9]: A (0% ≤ substrate protein remaining % ≤ 80%)
IKZF3 substrate protein remaining % [4, 9]: A (0% ≤ substrate protein remaining % ≤ 80%)
Wee1 substrate protein remaining % [5, 9]: A (0% ≤ substrate protein remaining % ≤ 80%)
GSPT1 substrate protein remaining % [6, 9]: A (0% ≤ substrate protein remaining % ≤ 80%)

inhibition at 0.5 µM [7]: 30 to 40%
inhibition at 2 µM [7]: 53 to 60%
SMILES: O=C1CCC(N2Cc3c(CN4CCN(C(c5ccccc5)c5cccnc5)CC4)cccc3C2=S)C(=O)N1 (stereo not shown) [GT-08193, 3-(4-((4-(phenyl(pyridin-3-yl)methyl)piperazin-1-yl)methyl)-1-thioxoisoindolin-2-yl)piperidine-2,6-dione]
CK1α substrate protein remaining % [1, 9]: B (80%< substrate protein remaining %≤ 100%)
IKZF 1 substrate protein remaining % [2, 9]: B (80%< substrate protein remaining %≤ 100%)
IKZF2 substrate protein remaining % [3, 9]: A (0% ≤ substrate protein remaining % ≤ 80%)
IKZF3 substrate protein remaining % [4, 9]: B (80%< substrate protein remaining %≤ 100%)
Wee1 substrate protein remaining % [5, 9]: A (0% ≤ substrate protein remaining % ≤ 80%)
GSPT1 substrate protein remaining % [6, 9]: A (0% ≤ substrate protein remaining % ≤ 80%)
inhibition at 0.01 µM [8]: 30 to 40%
inhibition at 0.5 µM [8]: 40 to 50%

SMILES: O=C1CCC(N2Cc3c(CN4CC=C(c5ccnc(F)c5F)CC4)cccc3C2=S)C(=O)N1 (stereo not shown) [GT-08464, 3-(4-((2',3'-difluoro-3,6-dihydro-[4,4'-bipyridin]-1(2H)-yl)methyl)-1-thioxoisoindolin-2-yl)piperidine-2,6-dione]
CK1α substrate protein remaining % [1, 9]: B (80%< substrate protein remaining %≤ 100%)
IKZF 1 substrate protein remaining % [2, 9]: B (80%< substrate protein remaining %≤ 100%)
IKZF2 substrate protein remaining % [3, 9]: B (80%< substrate protein remaining %≤ 100%)
IKZF3 substrate protein remaining % [4, 9]: B (80%< substrate protein remaining %≤ 100%)
Wee1 substrate protein remaining % [5, 9]: A (0% ≤ substrate protein remaining % ≤ 80%)
GSPT1 substrate protein remaining % [6, 9]: A (0% ≤ substrate protein remaining % ≤ 80%)
inhibition at 0.5 µM [7]: 60 to 80%
inhibition at 2 µM [7]: 60 to 80%
inhibition at 0.01 µM [8]: 50 to 60%
Inhibition Rate at 500 nM (%) [8]: la5

pIC50 [7]: 6.30 to 7.00
IC50 [8]: 10 to 50 nM
SMILES: O=C1CCC(N2Cc3cc(CN4CCN(C(c5ccccc5)c5ccccn5)CC4)ccc3C2=S)C(=O)N1 (stereo not shown) [GT-05103, 3-(5-((4-(phenyl(pyridin-2-yl)methyl)piperazin-1-yl)methyl)-1-thioxoisoindolin-2-yl)piperidine-2,6-dione]
CK1α substrate protein remaining % [1, 9]: B (80%< substrate protein remaining %≤ 100%)
IKZF 1 substrate protein remaining % [2, 9]: B (80%< substrate protein remaining %≤ 100%)
IKZF2 substrate protein remaining % [3, 9]: B (80%< substrate protein remaining %≤ 100%)
IKZF3 substrate protein remaining % [4, 9]: B (80%< substrate protein remaining %≤ 100%)
Wee1 substrate protein remaining % [5, 9]: B (80%< substrate protein remaining %≤ 100%)
GSPT1 substrate protein remaining % [6, 9]: A (0% ≤ substrate protein remaining % ≤ 80%)

inhibition at 0.5 µM [7]: 40 to 53%
inhibition at 2 µM [7]: 80 to 100%
SMILES: O=C1CCC(N2Cc3cc(CN4CCC(c5ccc(Cl)cc5)CC4)ccc3C2=S)C(=O)N1 (stereo not shown) [GT-08619, 3-(5-((4-(4-chlorophenyl)piperidin-1-yl)methyl)-1-thioxoisoindolin-2-yl)piperidine-2,6-dione]
CK1α substrate protein remaining % [1, 9]: B (80%< substrate protein remaining %≤ 100%)
IKZF 1 substrate protein remaining % [2, 9]: B (80%< substrate protein remaining %≤ 100%)
IKZF2 substrate protein remaining % [3, 9]: B (80%< substrate protein remaining %≤ 100%)
IKZF3 substrate protein remaining % [4, 9]: B (80%< substrate protein remaining %≤ 100%)
Wee1 substrate protein remaining % [5, 9]: B (80%< substrate protein remaining %≤ 100%)
GSPT1 substrate protein remaining % [6, 9]: A (0% ≤ substrate protein remaining % ≤ 80%)
inhibition at 0.01 µM [8]: 20 to 30%
inhibition at 0.5 µM [8]: 40 to 50%

inhibition at 0.5 µM [7]: 40 to 53%
inhibition at 2 µM [7]: 80 to 100%
SMILES: O=C1CCC(N2Cc3c(CN4CC=C(c5ncnc6sc7c(c56)CCCC7)CC4)cccc3C2=S)C(=O)N1 (stereo not shown) [GT-08962, 3-(4-((4-(5,6,7,8-tetrahydrobenzo[4,5]thieno[2,3-d]pyrimidin-4-yl)-3,6-dihydropyridin-1(2H)-yl)methyl)-1-thioxoisoindolin-2-yl)piperidine-2,6-dione]
CK1α substrate protein remaining % [1, 10]: B (80%< substrate protein remaining %≤ 100%)
IKZF 1 substrate protein remaining % [2, 10]: B (80%< substrate protein remaining %≤ 100%)
IKZF2 substrate protein remaining % [3, 10]: B (80%< substrate protein remaining %≤ 100%)
IKZF3 substrate protein remaining % [4, 10]: B (80%< substrate protein remaining %≤ 100%)
Wee1 substrate protein remaining % [5, 10]: A (0% ≤ substrate protein remaining % ≤ 80%)
GSPT1 substrate protein remaining % [6, 10]: A (0% ≤ substrate protein remaining % ≤ 80%)
inhibition at 0.01 µM [8]: 30 to 40%
inhibition at 0.5 µM [8]: 40 to 50%

inhibition at 0.5 µM [7]: 40 to 53%
inhibition at 2 µM [7]: 80 to 100%
SMILES: O=C1CCC(N2Cc3cc(CN4CC5CCC4CN5c4cccc(Cl)c4Cl)ccc3C2=S)C(=O)N1 (stereo not shown) [GT-08478, 3-(5-((5-(2,3-dichlorophenyl)-2,5-diazabicyclo[2.2.2]octan-2-yl)methyl)-1-thioxoisoindolin-2-yl)piperidine-2,6-dione]
CK1α substrate protein remaining % [1, 9]: B (80%< substrate protein remaining %≤ 100%)
IKZF 1 substrate protein remaining % [2, 9]: B (80%< substrate protein remaining %≤ 100%)
IKZF2 substrate protein remaining % [3, 9]: B (80%< substrate protein remaining %≤ 100%)
IKZF3 substrate protein remaining % [4, 9]: B (80%< substrate protein remaining %≤ 100%)
Wee1 substrate protein remaining % [5, 9]: B (80%< substrate protein remaining %≤ 100%)
GSPT1 substrate protein remaining % [6, 9]: A (0% ≤ substrate protein remaining % ≤ 80%)
inhibition at 0.01 µM [8]: 40 to 50%
inhibition at 0.5 µM [8]: 50 to 60%
